How the values were obtained:
Assay type in all cases: in vivo
Setaria faberi (SETFA) [1] = assay: Post-emergence biological efficacy, glasshouse, 500 or 1000 g/ha, evaluated after 13 days (100=total damage to plant; 0=no damage to plant); details: Setaria faberi, 312 h, rate 1,000 g/ha, read-out: Percentage damage caused to weed species, post-emergence, SETFA
Procedure: (§1) Seeds of Alopecurus myosuroides (ALOMY), Setaria faberi (SETFA), Echinochloa […]), Solanum nigrum (SOLNI), Amaranthus retroflexus (AMARE) and Ipomoea hederaceae (IPOHE) were sown in standard soil in pots. […] The test plants were then grown on under controlled conditions in a glasshouse (at 24/16° C., day/night; 14 hours light; 65% humidity) and watered twice daily. […]

[2] = test system: Ipomoea hederaceae (IPOHE); assay: as above; details: Ipomoea, 312 h, rate 1,000 g/ha, read-out: Percentage damage caused to weed species, post-emergence, IPOHE
Procedure: as §1

[3] = test system: Echinochloa crusgaffi (ECHCG); assay: as above; details: Echinochloa, 312 h, rate 1,000 g/ha, read-out: Percentage damage caused to weed species, post-emergence, ECHCG
Procedure: as §1

Solanum nigrum (SOLNI) [4] = assay: as above; details: Solanum nigrum, 312 h, rate 1,000 g/ha, read-out: Percentage damage caused to weed species, post-emergence, SOLNI
Procedure: as §1

[5] = test system: Amaranthus retroflexus (AMARE); assay: as above; details: Amaranthus retroflexus, 312 h, rate 1,000 g/ha, read-out: Percentage damage caused to weed species, post-emergence, AMARE
Procedure: as §1

[6] = test system: Alopecurus myosuroides (ALOMY); assay: as above; details: Alopecurus myosuroides, 312 h, rate 1,000 g/ha, read-out: Percentage damage caused to weed species, post-emergence, ALOMY
Procedure: as §1

Setaria faberi (SETFA) [7] = assay: Pre-emergence biological efficacy, glasshouse, 1000 g/ha, evaluated after 13 days (100=total damage to plant; 0=no damage to plant); details: Setaria faberi, 312 h, rate 1,000 g/ha, read-out: Percentage damage caused to weed species, pre-emergence, SETFA
Procedure: (§2) Seeds of Alopecurus myosuroides (ALOMY), Setaria faberi (SETFA), Echinochloa crus-galli (ECHCG), Solanum nigrum (SOLNI), Amaranthus retroflexus (AMARE) and Ipomoea hederaceae (IPOHE) were sown in standard soil in pots. […] The test plants were then grown under controlled conditions in the glasshouse (at 24/16° C., day/night; 14 hours light; 65% humidity) and watered twice daily. […]

[8] = test system: Echinochloa crus-galli (ECHCG); assay: as above; details: Echinochloa crus-galli, 312 h, rate 1,000 g/ha, read-out: Percentage damage caused to weed species, pre-emergence, ECHCG
Procedure: as §2

[9] = test system: Ipomoea hederaceae (IPOHE); assay: as above; details: Ipomoea, 312 h, rate 1,000 g/ha, read-out: Percentage damage caused to weed species, pre-emergence, IPOHE
Procedure: as §2

Solanum nigrum (SOLNI) [10] = assay: as above; details: Solanum nigrum, 312 h, rate 1,000 g/ha, read-out: Percentage damage caused to weed species, pre-emergence, SOLNI
Procedure: as §2

[11] = test system: Amaranthus retroflexus (AMARE); assay: as above; details: Amaranthus retroflexus, 312 h, rate 1,000 g/ha, read-out: Percentage damage caused to weed species, pre-emergence, AMARE
Procedure: as §2

[12] = test system: Alopecurus myosuroides (ALOMY); assay: as above; details: Alopecurus myosuroides, 312 h, rate 1,000 g/ha, read-out: Percentage damage caused to weed species, pre-emergence, ALOMY
Procedure: as §2

Row | Structure (SMILES) | pest or weed control at 1000 g/ha (Setaria faberi (SETFA) [1]) | pest or weed control at 1000 g/ha [2] | pest or weed control at 1000 g/ha [3] | pest or weed control at 1000 g/ha (Solanum nigrum (SOLNI) [4]) | pest or weed control at 1000 g/ha [5] | pest or weed control at 1000 g/ha [6] | pest or weed control at 1000 g/ha (Setaria faberi (SETFA) [7]) | pest or weed control at 1000 g/ha [8] | pest or weed control at 1000 g/ha [9] | pest or weed control at 1000 g/ha (Solanum nigrum (SOLNI) [10]) | pest or weed control at 1000 g/ha [11] | pest or weed control at 1000 g/ha [12]
1 | Cc1c[nH]c2nc(C3CC3)nc(C(=O)O)c12 [Compound 1-3, 4-Carboxy-2-cyclopropyl-5-methyl-7H-pyrrolo[2,3-d]pyrimidine] | 0% | 50% | 0% | 80% | 100% | 0% | 10% | 0% | 100% | 20% | 50% | 0%
2 | COC(=O)c1nc(C2CC2)nc2[nH]cc(C)c12 [Compound 1-4, 2-Cyclopropyl-4-methoxycarbonyl-5-methyl-7H-pyrrolo[2,3-d]pyrimidine] | 80% | 70% | 70% | 90% | 100% | 10% | 30% | 30% | 60% | 90% | 90% | 10%
3 | COC(=O)c1nc(C2CC2)nc2[nH]c(C)cc12 [Compound 1-6, 2-cyclopropyl-4-methoxycarbonyl-6-methyl-7H-pyrrolo[2,3-d]pyrimidine] | 0% | 0% | 0% | 0% | 0% | 0% | 0% | 0% | 0% | 0% | 0% | 0%
4 | COC(=O)c1nc(-c2ccc(Cl)c(F)c2)nc2[nH]cc(C)c12 [Compound 1-20, 2-(4-Chloro-3-fluorophenyl)-4-methoxycarbonyl-5-methyl-7H-pyrrolo[2,3-d]pyrimidine] | 0% | 60% | 0% | 70% | 70% | 0% | 0% | 0% | 0% | 0% | 50% | 0%
5 | COC(=O)c1nc(-c2ccc(Cl)c(F)c2)nc2[nH]c(C)cc12 [Compound 1-22, 2-(4-Chloro-3-fluorophenyl)-4-methoxycarbonyl-6-methyl-7H-pyrrolo[2,3-d]pyrimidine] | 10% | 40% | 0% | 30% | 20% | 10% | 0% | 0% | 0% | 0% | 0% | 0%
6 | COC(=O)c1nc(-c2ccc(Cl)c(F)c2)nc2[nH]c(C)c(C)c12 [Compound 1-24, 2-(4-chloro-3-fluorophenyl)-5,6-dimethyl-4-methoxycarbonyl-7H-pyrrolo[2,3-d]pyrimidine] | 0% | 20% | 0% | 50% | 10% | 0% | 0% | 0% | 0% | 0% | 0% | 0%
7 | COc1c(Cl)ccc(-c2nc(C(=O)O)c3cc[nH]c3n2)c1F [Compound 1-61, 4-Carboxy-2-(4-chloro-2-fluoro-3-methoxyphenyl)-7H-pyrrolo[2,3-d]pyrimidine] | 40% | 70% | 20% | 70% | 100% | 10% | 0% | 0% | 0% | – | – | 0%
8 | COc1c(Cl)ccc(-c2nc(C(=O)O)c3c(C)c[nH]c3n2)c1F [Compound 1-63, 4-carboxy-2-(4-chloro-2-fluoro-3-methoxyphenyl)-5-methyl-7H-pyrrolo[2,3-d]pyrimidine] | 60% | 70% | 60% | 100% | 100% | 40% | 10% | 20% | 80% | 90% | 70% | 30%
9 | COC(=O)c1nc(-c2ccc(Cl)c(OC)c2F)nc2[nH]cc(C)c12 [Compound 1-64, 2-(4-chloro-2-fluoro-3-methoxyphenyl)-4-methoxycarbonyl-5-methyl-7H-pyrrolo[2,3-d]pyrimidine] | 70% | 70% | 70% | 80% | 100% | 20% | 10% | 30% | 100% | 70% | 100% | 20%
10 | COc1c(Cl)ccc(-c2nc(C(=O)OCc3ccccc3)c3c(C)c[nH]c3n2)c1F [Compound 1-86, 4-Benzyloxycarbonyl-2-(4-chloro-2-fluoro-3-methoxyphenyl)-5-methyl-7H-pyrrolo[2,3-d]pyrimidine] | 10% | 30% | 0% | 60% | 40% | 0% | 0% | 0% | 0% | 10% | – | 0%
11 | Cc1cc2c(C(=O)O)nc(-c3ccc(Cl)c(F)c3)nc2n1Cc1ccccc1[N+](=O)[O-] [Compound 8-21, 4-Carboxy-2-(4-chloro-3-fluorophenyl)-6-methyl-7-(2-nitrophenyl-methyl)-7H-pyrrolo[2,3-d]pyrimidine] | 0% | 10% | 0% | 20% | 0% | 10% | 20% | 0% | 0% | 0% | – | 0%
12 | COC(=O)c1nc(-c2ccc(Cl)c(OC)c2F)cc2c1c(C)cn2C(C)=O [Compound 36-64, 6-(4-Chloro-2-fluoro-3-methoxyphenyl)-4-methoxycarbonyl-3-methyl-1-methylcarbonyl-1H-pyrrolo[3,2-c]pyridine] | 10% | 70% | 0% | 80% | 70% | 0% | 0% | 0% | 20% | 50% | – | 0%
